# Source: a melting point compilation (Tetko et al.; mined from patent text by program, amines drawn as free bases though some values may be those of a salt)
row,SMILES,melting point [°C]
1,C1CNC2CNCC2C1 (stereo unspecified),65 to 67
2,CC(C)c1cc(C(C)C)c2c(c1)C1(N)C(=O)c3ccccc3C1(O)O2 (stereo unspecified),199 to 200
3,COC(=O)c1cc(Br)cc(-c2ccc3c(c2)C(C)(C)CCC3(C)C)c1,88
4,COc1ccc(-c2nc(C3=NNC(=O)CC3)sc2-c2ccc(OC)cc2)cc1,242 to 247
5,CCCCc1nc(C(=O)CCC)c(C#N)[nH]1,91 to 92
6,Cc1nc(-c2ccc(Br)cc2)n(-c2ccc(S(C)(=O)=O)cn2)n1,211 to 212
7,CCCCNC(=S)Nc1ccc(NNC=O)cc1,129 to 131
8,N#Cc1c(F)ccc(OCc2nc3cc(Cl)ccc3s2)c1F,145 to 147
9,Cc1ccc(C(=O)Nc2cc(-n3ccnc3C)cc(C(F)(F)F)c2)cc1Nc1nccc(-c2cccnc2)n1,242 to 247
10,FC(F)(F)c1cc(Cl)c2cc(Cl)cc(Cl)c2n1,74 to 76
11,COc1ccc(S(=O)(=O)c2cccs2)c(Cl)c1Cl,190
12,CCn1nc2c(N)nc3ccccc3c2c1CCc1ccccc1,179 to 181
13,N#CC1(c2ccncc2)CCCCC1,79
14,CCOC(=O)/C=C/c1cn(Cc2ccc(OCc3csc(-c4ccccc4)n3)cc2)nc1-c1cccs1,104 to 105
15,CNC(=O)c1ccc(-c2ccc(NC(=O)NCc3cccnc3)cc2)nc1N,234 to 236
16,N#C/C=C1\CCc2ncc3c(c21)CCO3,231 to 233
17,CN(CCO)c1nc(N)nc(-c2cc(Cl)ccc2Cl)n1,153 to 155
18,O=C(Nc1nc(C(Cl)(Cl)Cl)ns1)c1ccc(Cl)cc1Cl,136
19,c1ccc2c(c1)Cc1cccnc1O2,87 to 88
20,CCCCCCC(C)(C)c1cc(O)cc(O)c1,93 to 95
21,Cc1ccc(-c2cc(-c3ccc(Cl)cc3)n[nH]2)cc1,228
22,CCC/C(=C\C#N)c1ccc2c(c1)C(CC)(CC)OC(=O)N2,121 to 124
23,CS(=O)(=O)Oc1ccc(O)cc1,82 to 84
24,Cn1nnnc1SCCCn1cc(C2=C(c3cn(C)c4ccccc34)C(=O)NC2=O)c2ccccc21,95 to 97
25,N#Cc1nn(-c2c(Cl)cc(C(F)(F)F)cc2Cl)c(N)c1-c1ccccc1Cl,192 to 193
26,COc1ccc(CNc2n[nH]c3ncnc(Nc4cccc(Cl)c4)c23)c(OC)c1OC,168 to 169

# Now from value to molecule:
row,melting point [°C],SMILES
1,200 to 202,Cc1ccc(C2CCN(C(=O)Nc3ccc4nc(CN5C(C)(C)CCCC5(C)C)ccc4c3)CC2)cc1
2,105 to 109,Cc1c(C)c(N2CCN(Cc3ccccc3)CC2)c(C)c2c1OC(C)(C)C2(O)c1ccc(F)nc1 (stereo unspecified)
3,288 to 289,CCN1Cc2ccc(Cl)cc2-c2c(C(=O)N3CCOCC3)cc(-c3ccccc3)c(=O)n21
4,208 to 210,COC(=O)c1ccccc1-n1c(CCl)nc2c(OC)cccc2c1=O
5,104 to 105,N#Cc1ccccc1NC1CCN(Cc2ccccc2)CC1
6,119 to 121,COC(=O)c1csc(Cl)c1NC(C)=O
7,280 to 283,O=C(CC12CC3CC(CC(C3)C1)C2)Nc1c(Cl)ccc2nc(N3CCNCC3)ccc12
8,176 to 178,O=C1CCC(N2Cc3c(OCc4ccc(CN5CCN(CC6CC6)CC5)cc4)cccc3C2=O)C(=O)N1 (stereo unspecified)
9,63 to 64,CC(C)(C)[Si](OCCOc1ccc([N+](=O)[O-])cn1)(c1ccccc1)c1ccccc1
10,103 to 104,COc1c(Br)c(O)c(C=O)c(OC)c1Br
11,150,CCCCCc1c(C(=O)NN2CC=CCC2)nn(-c2ccc(Cl)cc2Cl)c1-c1ccc(Cl)cc1
12,75 to 78,COc1cc(O)c(C=O)cc1C(C)(C)C
13,109 to 110,CC(C)(C)OC(=O)c1c(Cl)cc(N2C(=O)N3CCCC3(Cc3ccc(Br)cc3)C2=O)cc1Cl (stereo unspecified)
14,52,COc1ccc(CCS(=O)(=O)CC2CCC2)cc1
15,147,CCOC(=O)c1nn(-c2ccc(Br)cc2)c2c1CCCC2
16,221 to 222,CCN1C(=O)C(C)Oc2ccc(-n3c(=O)cc(C(F)(F)F)n(C)c3=O)cc21 (stereo unspecified)
17,127 to 128,CC(C)(C)OC(=O)NS(=O)(=O)c1ccc(Br)cc1
18,205 to 208,CCOC(=O)NNC(=O)Nc1ccc(C(F)(F)F)cc1
19,126 to 128,COc1cccc2c1cc(SCCC(=O)O)n2C
20,205 to 206,CC(=O)OCc1c(Br)cccc1N1CCn2c(nc3c2CCCC3)C1=O
21,197 to 198,O=C(O)C1=CC2C(=O)NC(=O)C2(CCO)C=C1 (stereo unspecified)
22,47.5 to 48.5,COC(=O)C1CCCN(C(=O)OC(C)(C)C)C1 (stereo unspecified)
23,123 to 124,CNC(=O)C#CCc1ccc(OC)cc1
24,50 to 55,CCONC(=O)c1ccc(-c2cccc(CN(C)CCCc3ccccc3)c2)cn1
25,150 to 152,CC(C)(C)Nc1ccccc1C(CCC1CCCCC1)C(=O)c1cccc(Cl)c1 (stereo unspecified)
